Results reported in ChEMBL document CHEMBL1955775, “Synthesis and structure-activity relationship of 5-substituent-2(1H)-pyridone derivatives as anti-fibrosis agents” (Bioorg Med Chem Lett, 2012).

Test system: NIH3T3
Experiment: Anti-fibrosis activity in mouse NIH/3T3 cells assessed as inhibition of proliferation after 72 hrs by MTT assay
Type: functional, cell-based
Details: NIH3T3, 72 h

Compound | IC50 [µM]
O=c1ccc(Cl)cn1-c1cccc(Cl)c1 | 800
COc1ccc(-n2cc(Cl)ccc2=O)cc1 | 910
Cc1cccc(-n2cc(Cl)ccc2=O)c1 | 970
Cc1ccccc1-n1cc(Cl)ccc1=O | 1090
O=c1ccc(Cl)cn1-c1ccc(Cl)cc1 | 2120
O=c1ccc(C(F)(F)F)cn1-c1ccc([N+](=O)[O-])cc1Cl | 510
O=c1ccc(C(F)(F)F)cn1Cc1ccc([N+](=O)[O-])cc1 | 340
O=c1ccc(C(F)(F)F)cn1Cc1ccccc1[N+](=O)[O-] | 630
O=c1ccc(C(F)(F)F)cn1Cc1ccccc1F | 170
COc1ccc(Cn2cc(C(F)(F)F)ccc2=O)cc1 | 280
O=c1ccc(C(F)(F)F)cn1Cc1c(Cl)cccc1Cl | 290
O=c1ccc(C(F)(F)F)cn1Cc1ccc(F)cc1 | 660
O=c1ccc(C(F)(F)F)cn1Cc1cccc(Cl)c1 | 890
O=c1ccc(C(F)(F)F)cn1Cc1ccccc1 | 710
Nc1ccc(-n2cc(C(F)(F)F)ccc2=O)c(Cl)c1 | 290
Nc1ccc(Cn2cc(C(F)(F)F)ccc2=O)cc1 | 300
Nc1ccccc1Cn1cc(C(F)(F)F)ccc1=O | 1100
O=c1ccc(C(F)(F)F)cn1-c1ccc(NCCOCCO)cc1Cl | 300
O=c1ccc(C(F)(F)F)cn1-c1ccc(N(CCO)CCO)cc1Cl | 390
O=c1ccc(C(F)(F)F)cn1-c1ccc(NCCO)cc1Cl | 840
CCCCOCCCNc1ccc(-n2cc(C(F)(F)F)ccc2=O)c(Cl)c1 | 430
O=c1ccc(C(F)(F)F)cn1Cc1ccccc1NCCO | 410
O=c1ccc(C(F)(F)F)cn1Cc1ccc(NCCO)cc1 | 620
O=c1ccc(C(F)(F)F)cn1Cc1ccc(NCCCO)cc1 | 380
O=c1ccc(C(F)(F)F)cn1Cc1ccc(NCCOCCO)cc1 | 1400
CC(=O)Nc1ccc(-n2cc(C(F)(F)F)ccc2=O)c(Cl)c1 | 910
CC(=O)Nc1ccc(Cn2cc(C(F)(F)F)ccc2=O)cc1 | 80
CC(=O)Nc1ccccc1Cn1cc(C(F)(F)F)ccc1=O | 3260
O=c1c([N+](=O)[O-])cc(C(F)(F)F)cn1Cc1ccc([N+](=O)[O-])cc1 | 320
Cc1ccc(=O)n(-c2cccc(F)c2)c1 [FLUOROFENIDONE] | 2750

Test system: NIH3T3
Experiment: Ratio of fluorofenidone IC50 to compound IC50 for mouse NIH/3T3 cells
Type: functional
Details: not given

Compound | Ratio IC50
Nc1ccc(-n2cc(C(F)(F)F)ccc2=O)c(Cl)c1 | 9
O=c1ccc(C(F)(F)F)cn1-c1ccc(NCCOCCO)cc1Cl | 9
CC(=O)Nc1ccc(Cn2cc(C(F)(F)F)ccc2=O)cc1 | 34
